Laboratory results taken from PubChem BioAssay (NCI).
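The compound was tested at five concentrations on cells cultured in 96-well plates, with a 48-hour exposure period. Abbreviation: GI50, concentration required for 50% inhibition of growth. TGI is the concentration that stops growth completely.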

Assays:
Test in all cases: inhibition of tumour cell growth, NCI panel, 48 h
[1] = system: CCRF-CEM leukemia
[2] = system: NCI/ADR-RES ovarian
[3] = system: LOX IMVI melanoma
[4] = system: EKVX NSCLC
[5] = system: 786-0 renal
[6] = system: A549 NSCLC
[7] = system: OVCAR-8 ovarian
[8] = system: MALME-3M melanoma
[9] = system: SF-539 CNS
[10] = system: SR leukemia
[11] = system: PC-3 prostate
[12] = system: SK-MEL-2 melanoma
[13] = system: SNB-19 CNS
[14] = system: HS 578T breast
[15] = system: UO-31 renal
[16] = system: NCI-H23 lung
[17] = system: SN12C renal
[18] = system: IGROV1 ovarian
[19] = system: SK-MEL-28 melanoma
[20] = system: TK-10 renal
[21] = system: COLO 205 colon
[22] = system: UACC-257 melanoma
[23] = system: ACHN renal
[24] = system: RPMI-8226 leukemia
[25] = system: HCT-15 colon
[26] = system: OVCAR-4 ovarian
[27] = system: SNB-75 CNS
[28] = system: HOP-62 NSCLC

Compound: Cc1ccc(C(=O)/C(=C\c2ccc([N+](=O)[O-])cc2)S(=O)Cc2ccc(F)cc2)cc1 (stereo not given)
- GI50 [1]: 752 nM
- TGI [1]: > 100000 nM
- GI50 [2]: 2280 nM
- TGI [2]: 5970 nM
- GI50 [3]: 1460 nM
- TGI [3]: 2950 nM
- GI50 [4]: 1780 nM
- TGI [4]: 3800 nM
- GI50 [5]: 1370 nM
- TGI [5]: 2680 nM
- GI50 [6]: 2860 nM
- TGI [6]: 8800 nM
- GI50 [7]: 1880 nM
- TGI [7]: 4080 nM
- GI50 [8]: 1570 nM
- TGI [8]: 3330 nM
- GI50 [9]: 1720 nM
- TGI [9]: 3290 nM
- GI50 [10]: 703 nM
- TGI [10]: 12600 nM
- GI50 [11]: 1520 nM
- TGI [11]: 3090 nM
- GI50 [12]: 2100 nM
- TGI [12]: 5200 nM
- GI50 [13]: 1750 nM
- TGI [13]: 3330 nM
- GI50 [14]: 2870 nM
- TGI [14]: 8760 nM
- GI50 [15]: 1360 nM
- TGI [15]: 2690 nM
- GI50 [16]: 1690 nM
- TGI [16]: 3360 nM
- GI50 [17]: 1700 nM
- TGI [17]: 3420 nM
- GI50 [18]: 1500 nM
- TGI [18]: 3050 nM
- GI50 [19]: 1820 nM
- TGI [19]: 3590 nM
- GI50 [20]: 1720 nM
- TGI [20]: 3280 nM
- GI50 [21]: 1920 nM
- TGI [21]: 3760 nM
- GI50 [22]: 1930 nM
- TGI [22]: 3690 nM
- GI50 [23]: 1860 nM
- TGI [23]: 3600 nM
- GI50 [24]: 1020 nM
- TGI [24]: 4330 nM
- GI50 [25]: 1450 nM
- TGI [25]: 3500 nM
- GI50 [26]: 1730 nM
- TGI [26]: 3540 nM
- GI50 [27]: 1470 nM
- TGI [27]: 3100 nM
- GI50 [28]: 2350 nM
